For this series the following is noted: Crystal; DTA.

We go through 1 compound from the NIST ThermoML archive (doi:10.1016/j.fluid.2007.07.070).

The structures appear in SMILES notation. ± gives the expanded uncertainty stated by the source.

Regarding `O=C1c2ccccc2C(=O)C1c1nc2ccccc2cc1O` [1H-indene-1,3(2H)-dione, 2-(3-hydroxy-2-quinolinyl)-], the Normal melting temperature came out at 260.6 ± 0.5 °C.
